Legend:
Assay in all cases: MIC determination, broth microdilution
Type in all cases: cell-based
[1] = tested on: A. baumannii 19606; settings: Acinetobacter baumannii, 37° C., 18-24 hours, read-out: Strain8 MIC
Description: (§1) Compounds of this invention were tested for antimicrobial activity by determining minimum inhibitory concentrations (MICs, in μg/mL) using the broth microdilution method according to the guidelines of the Clinical Laboratories and Standards Institute (“Methods for Dilution Antimicrobial Susceptibility Tests for Bacteria that Grow Aerobically”, Approved standard, 7th ed., Clinical and Laboratory Standards Institute (CLSI) Document M7-A8, Wayne, Pa., USA, 2009.). Test compounds were dissolved in DMSO. The compounds were then diluted in microbial growth medium (Mueller Hinton Broth II, cation adjusted) resulting in a final concentration range of 0.063-64 μg/mL in serial two-fold dilution. In all cases the final DMSO concentration was less than 0.5%. Bacteria were added to 96-well microtitre plates containing the two-fold dilutions of the compounds; the final cell density was approximately 5×10^5 colony forming units/mL (CFU/mL). Plates were incubated at 37° C. for 18-24 hours and read visually. The MIC, i.e. the lowest concentration of the test compound that inhibited visible growth of the bacteria, was recorded. The same assay conditions were used when the compounds of this invention were tested in combination with—lactamase inhibitors. While the compounds of this invention were serially diluted as described above, a constant concentration of the inhibitor of 4 mg/L was used. Bacterial strains that were used to evaluate the antimicrobial activity using the MIC determination included but were not limited to E. coli clinical isolate, E. coli 8739, K. pneumoniae clinical isolate, K. pneumoniae 700603, E. cloacae clinical isolate, E. cloacae 700323, A. baumannii clinical isolate, A. baumannii 19606, P. aeruginosa clinical isolate, P. aeruginosa 9027.

[2] = tested on: A. baumannii clinical isolate; settings: Acinetobacter baumannii, 37° C., 18-24 hours, read-out: Strain 7 MIC
Description: as §1

[3] = tested on: E. cloacae 700323; settings: Enterobacter cloacae, 37° C., 18-24 hours, read-out: Strain 6 MIC
Description: as §1

[4] = tested on: E. cloacae clinical isolate; settings: Enterobacter cloacae, 37° C., 18-24 hours, read-out: Strain5 MIC
Description: as §1

[5] = tested on: E. coli 8739; settings: Escherichia coli, 37° C., 18-24 hours, read-out: Strain 2 MIC
Description: as §1

[6] = tested on: E. coli clinical isolate; settings: Escherichia coli, 37° C., 18-24 hours, read-out: Strain 1 MIC
Description: as §1

[7] = tested on: K. pneumoniae 700603; settings: Klebsiella pneumoniae, 37° C., 18-24 hours, read-out: Strain 4 MIC
Description: as §1

[8] = tested on: K. pneumoniae clinical isolate; settings: Klebsiella pneumoniae, 37° C., 18-24 hours, read-out: Strain 3 MIC
Description: as §1

[9] = tested on: P. aeruginosa 9027; settings: Pseudomonas aeruginosa, 37° C., 18-24 hours, read-out: Strain 10 MIC
Description: as §1

[10] = tested on: P. aeruginosa clinical isolate; settings: Pseudomonas aeruginosa, 37° C., 18-24 hours, read-out: Strain 9 MIC
Description: as §1

Structure (SMILES) | MIC [1] | MIC [2] | MIC [3] | MIC [4] | MIC [5] | MIC [6] | MIC [7] | MIC [8] | MIC [9] | MIC [10]
CC1(C)[C@H](NC(=O)/C(=N\O[C@@H](COc2ccc(C(=N)N[C@H]3CCCNC3)cc2)C(=O)O)c2nc(N)sc2Cl)C(=O)N1OS(=O)(=O)O [Example 11, (S)-2-((((Z)-1-(2-Amino-5-chlorothiazol-4-yl)-2-(((S)-2,2-dimethyl-4-oxo-1-(sulfooxy)azetidin-3-yl)amino)-2-oxoethylidene)amino)oxy)-3-(4-(N—((S)-piperidin-3-yl)carbamimidoyl)phenoxy)propanoic acid] | 32 µg/mL | 16 µg/mL | 64 µg/mL | 32 µg/mL | 0.5 µg/mL | 0.5 µg/mL | 64 µg/mL | 32 µg/mL | 2 µg/mL | 4 µg/mL
CC1(C)[C@H](NC(=O)/C(=N\O[C@@H](COc2ccc(C(=N)N[C@@H]3CCNC3)cc2)C(=O)O)c2nsc(N)n2)C(=O)N1OS(=O)(=O)O [Example 12, (S)-2-((((Z)-1-(5-Amino-1,2,4-thiadiazol-3-yl)-2-(((S)-2,2-dimethyl-4-oxo-1-(sulfooxy)azetidin-3-yl)amino)-2-oxoethylidene)amino)oxy)-3-(4-(N—((R)-pyrrolidin-3-yl)carbamimidoyl)phenoxy)propanoic acid] | 8 µg/mL | 16 µg/mL | 8 µg/mL | 8 µg/mL | 1 µg/mL | 8 µg/mL | 8 µg/mL | 4 µg/mL | 2 µg/mL | 2 µg/mL
